This passage reports mutagenic call results from PubChem BioAssay AID1259407 (Chemical Carcinogenesis Research Information System (CCRIS), 2018).

This data set has as its system CCRIS mutagenicity, Ames/micronucleus/aberration tests. The experiment in a line: CCRIS mutagenicity studies.
Where [1] appears, read: Test System: AMES SALMONELLA TYPHIMURIUM, Strain/Indicator: TA98, Metabolic Activation: NONE, Method: PREINCUBATION
Setting [2] is: Test System: AMES SALMONELLA TYPHIMURIUM, Strain/Indicator: TA98, Metabolic Activation: RAT, LIVER, S-9, AROCLOR 1254 (10%), Method: PREINCUBATION
Where [3] appears, read: Test System: AMES SALMONELLA TYPHIMURIUM, Strain/Indicator: TA100, Metabolic Activation: NONE, Method: PREINCUBATION
[4] abbreviates: Test System: AMES SALMONELLA TYPHIMURIUM, Strain/Indicator: TA100, Metabolic Activation: RAT, LIVER, S-9, AROCLOR 1254 (10%), Method: PREINCUBATION
[5] abbreviates: Test System: AMES SALMONELLA TYPHIMURIUM, Strain/Indicator: TA1535, Metabolic Activation: NONE, Method: PREINCUBATION
[6] abbreviates: Test System: AMES SALMONELLA TYPHIMURIUM, Strain/Indicator: TA1535, Metabolic Activation: RAT, LIVER, S-9, AROCLOR 1254 (10%), Method: PREINCUBATION
Setting [7] is: Test System: MOUSE LYMPHOMA, Strain/Indicator: L5178Y (TK+/TK-), Metabolic Activation: NONE, Method: SUSPENSION/PLATE.
The mark [8] stands for this setting: Test System: MOUSE LYMPHOMA, Strain/Indicator: L5178Y (TK+/TK-), Metabolic Activation: RAT, LIVER, S-9, AROCLOR 1254, Method: SUSPENSION/PLATE.

Each structure is given as a SMILES string. The source made the active and inactive calls. No rule for the calls is given here.

Take `CCCCC(CC)COS(=O)(=O)O` (stereo not drawn): the mutagenic call was “inactive; negative” (End Point: IN VITRO CHROMOSOMAL ABERRATIONS, Test System: CHO-LB CELLS, Metabolic Activation: NONE); “inactive; negative” (End Point: IN VITRO CHROMOSOMAL ABERRATIONS, Test System: CHO-LB CELLS, Metabolic Activation: RAT, LIVER, S-9, AROCLOR 1254); “inactive; negative” (Test System: AMES SALMONELLA TYPHIMURIUM, Strain/Indicator: TA98, Metabolic Activation: HAMSTER, LIVER, S-9, AROCLOR 1254 (10%), Method: PREINCUBATION); “inactive; negative” under setting [1]; “inactive; negative” under setting [2]; “inactive; negative” (Test System: AMES SALMONELLA TYPHIMURIUM, Strain/Indicator: TA100, Metabolic Activation: HAMSTER, LIVER, S-9, AROCLOR 1254 (10%), Method: PREINCUBATION). Besides, the mutagenic call under setting [3] was “inactive; negative”; the mutagenic call under setting [4] was “inactive; negative”; the mutagenic call (Test System: AMES SALMONELLA TYPHIMURIUM, Strain/Indicator: TA1535, Metabolic Activation: HAMSTER, LIVER, S-9, AROCLOR 1254 (10%), Method: PREINCUBATION) was “inactive; negative”; the mutagenic call under setting [5] was “inactive; negative”; the mutagenic call under setting [6] is “inactive; negative”; the mutagenic call (Test System: AMES SALMONELLA TYPHIMURIUM, Strain/Indicator: TA1537, Metabolic Activation: HAMSTER, LIVER, S-9, AROCLOR 1254 (10%), Method: PREINCUBATION) is “inactive; negative”. Besides, the mutagenic call reads like this: (Test System: AMES SALMONELLA TYPHIMURIUM, Strain/Indicator: TA1537, Metabolic Activation: NONE, Method: PREINCUBATION) “inactive; negative”; (Test System: AMES SALMONELLA TYPHIMURIUM, Strain/Indicator: TA1537, Metabolic Activation: RAT, LIVER, S-9, AROCLOR 1254 (10%), Method: PREINCUBATION) “inactive; negative”; under setting [7], “inactive; negative”; under setting [8], “inactive; negative”.
As to `O=c1cccccc1O`, the mutagenic call runs as follows: under setting [7], “active; positive. reevaluation of results: positive”; under setting [8], “inactive; positive. reevaluation of results: negative”.
With `O=[N+]([O-])c1ccc(OC[C@@H]2CO2)cc1`, where the note is “Test System: AMES SALMONELLA TYPHIMURIUM, Strain/Indicator: TA100, Metabolic Activation: NONE, Method: STANDARD PLATE”, the mutagenic call was “active; positive”.
With `O[C@@H]1[C@H]2O[C@H]2c2c(ccc3ccc4ccccc4c23)[C@H]1O`, the mutagenic call (Test System: E. COLI, Strain/Indicator: CL101P, Metabolic Activation: NONE, Method: PREINCUBATION) was “active; positive”; the mutagenic call (Test System: E. COLI, Strain/Indicator: CL102P, Metabolic Activation: NONE, Method: PREINCUBATION) is “active; positive”; the mutagenic call (Test System: E. COLI, Strain/Indicator: CL103P, Metabolic Activation: NONE, Method: PREINCUBATION) is “active; positive”; the mutagenic call (Test System: E. COLI, Strain/Indicator: CL104P, Metabolic Activation: NONE, Method: PREINCUBATION) is “active; positive”; the mutagenic call (Test System: E. COLI, Strain/Indicator: CL105P, Metabolic Activation: NONE, Method: PREINCUBATION) is “active; positive”; the mutagenic call (Test System: E. COLI, Strain/Indicator: CL106P, Metabolic Activation: NONE, Method: PREINCUBATION) was “active; positive”.
`Cn1c(N)nc2cc(C#N)ccc21`: the mutagenic call is “active; positive” (Test System: AMES SALMONELLA TYPHIMURIUM, Strain/Indicator: TA98, Metabolic Activation: RAT, LIVER, S-9, AROCLOR 1254, Method: PREINCUBATION) and “inactive; negative” (Test System: AMES SALMONELLA TYPHIMURIUM, Strain/Indicator: TA100, Metabolic Activation: RAT, LIVER, S-9, AROCLOR 1254, Method: PREINCUBATION).
Take `CC(C)(O)C#N`: the mutagenic call (Test System: AMES SALMONELLA TYPHIMURIUM, Strain/Indicator: TA97, Metabolic Activation: HAMSTER, LIVER, S-9, AROCLOR 1254 (10 OR 30%), Method: PREINCUBATION) was “inactive; negative”; the mutagenic call (Test System: AMES SALMONELLA TYPHIMURIUM, Strain/Indicator: TA97, Metabolic Activation: NONE, Method: PREINCUBATION) is “inactive; negative”; the mutagenic call (Test System: AMES SALMONELLA TYPHIMURIUM, Strain/Indicator: TA97, Metabolic Activation: RAT, LIVER, S-9, AROCLOR 1254 (10%), Method: PREINCUBATION) was “inactive; negative”; the mutagenic call (Test System: AMES SALMONELLA TYPHIMURIUM, Strain/Indicator: TA97, Metabolic Activation: RAT, LIVER, S-9, AROCLOR 1254 (30%), Method: PREINCUBATION) was “inactive; negative”; the mutagenic call (Test System: AMES SALMONELLA TYPHIMURIUM, Strain/Indicator: TA98, Metabolic Activation: HAMSTER, LIVER, S-9, AROCLOR 1254 (10 OR 30%), Method: PREINCUBATION) was “inactive; negative”; the mutagenic call under setting [1] was “inactive; negative”. Further, the mutagenic call is, setting by setting: under setting [2], “inactive; negative”; (Test System: AMES SALMONELLA TYPHIMURIUM, Strain/Indicator: TA98, Metabolic Activation: RAT, LIVER, S-9, AROCLOR 1254 (30%), Method: PREINCUBATION) “inactive; negative”; (Test System: AMES SALMONELLA TYPHIMURIUM, Strain/Indicator: TA100, Metabolic Activation: HAMSTER, LIVER, S-9, AROCLOR 1254 (10 OR 30%), Method: PREINCUBATION) “inactive; negative”; under setting [3], “inactive; negative”; under setting [4], “inactive; negative”; (Test System: AMES SALMONELLA TYPHIMURIUM, Strain/Indicator: TA100, Metabolic Activation: RAT, LIVER, S-9, AROCLOR 1254 (30%), Method: PREINCUBATION) “inactive; negative”. Besides, the mutagenic call was “inactive; negative” (Test System: AMES SALMONELLA TYPHIMURIUM, Strain/Indicator: TA1535, Metabolic Activation: HAMSTER, LIVER, S-9, AROCLOR 1254 (10 OR 30%), Method: PREINCUBATION); “inactive; negative” under setting [5]; “inactive; negative” under setting [6]; “inactive; negative” (Test System: AMES SALMONELLA TYPHIMURIUM, Strain/Indicator: TA1535, Metabolic Activation: RAT, LIVER, S-9, AROCLOR 1254 (30%), Method: PREINCUBATION).
